# Laboratory results: patent publication US8828988B2 (Tetraphase Pharmaceuticals, Inc., priority 2009, dated 2014)
# Read-outs that look alike come from different tables or passages of the source.
# Legend:
# [1] = test system: E. coli DH10B(pBAD-tetK), expressing tet(K); experiment: MIC against recombinant E. coli expressing tet(K); format: cell-based; details: for MIC: Escherichia coli; for MIC ratio, TetK induced to uninduced: ratio of TetK induced to uninduced MIC; for Effect of expression of (tet)K on activity: result in words
# Text: (§1) Constructs were transformed into E. coli DH10B for expression. Recombinant strains were pre-induced under optimized conditions with L-arabinose prior to use as inocula in CLSI standardized MIC assays.
# [2] = test system: E. coli DH10B(pBAD-tetM), expressing tet(M); experiment: MIC against recombinant E. coli expressing tet(M); format: cell-based; details: for MIC: Escherichia coli; for Ratio (TetM induced / Uninduced): ratio of MICs; for Effect of expression of (tet)M on activity: result in words
# Text: as §1
# [3] = test system: E. coli S30 extract system, coupled in vitro transcription/translation, firefly luciferase readout; experiment: In vitro transcription/translation (TnT) assay; format: biochemical; details: for IC50, in vitro transcription/translation system: E. coli S30 extract, luciferase readout
# [4] = test system: Enterococcus faecalis EF103, ATCC 29212; experiment: MIC assay, EF103; format: cell-based; details: Enterococcus faecalis, ATCC29212; Table 8; read-out: MIC E. faecalis ATCC 29212
# [5] = test system: Escherichia coli EC155, tetracycline-resistant, tet(A); experiment: MIC assay, EC155; format: cell-based
# [6] = test system: Staphylococcus aureus SA161, HA-MRSA, tetracycline-resistant, tet(M); experiment: MIC assay, SA161; format: cell-based; details: Table 8, read-out: MIC S. aureus MRSA, tetM
# [7] = test system: Streptococcus pneumoniae SP160, tetracycline-resistant, tet(M); experiment: MIC assay, SP160; format: cell-based; details: Table 8, read-out: MIC S. pneumoniae tetM
# [8] = test system: Streptococcus pneumoniae SP106, ATCC 49619; experiment: MIC assay, SP106; format: cell-based
# [9] = test system: Staphylococcus aureus SA158, tetracycline-resistant tet(K); experiment: MIC assay, SA158; format: cell-based; details: Table 8, read-out: MIC S. aureus tetK
# [10] = test system: Escherichia coli EC107, ATCC 25922; experiment: MIC assay, EC107; format: cell-based
# [11] = test system: Enterococcus faecalis EF159, tetracycline-resistant, tet(M); experiment: MIC assay, EF159; format: cell-based
# [12] = test system: Staphylococcus aureus SA101, ATCC 29213, MSSA; experiment: MIC assay, SA101; format: cell-based
# [13] = test system: S. aureus clinical isolates; experiment: MIC50, MIC90 and MIC range, panel of clinical isolates (Example 20); format: cell-based; details: MRSA, 30 isolates; in µg/mL
# Description: (§2) The assays were run as follows.
# (§3) Both values, as well as the MIC range (the lowest and highest MIC value observed for a collection of organisms), were determined for the isolates listed in Table 3.
# [14] = test system: S. pneumoniae clinical isolates; experiment: as above; format: cell-based; details: 19 isolates
# Description: as §2, §3
# [15] = test system: E. faecalis clinical isolates; experiment: as above; format: cell-based; details: 24 isolates, in µg/mL
# Description: as §2, §3
# [16] = test system: S. aureus ATCC 13709 (Smith); experiment: Mouse systemic infection model, S. aureus septicemia; details: mouse septicemia, S. aureus ATCC 13709, intravenous treatment one hour post-challenge, survival after 48 hours
# [17] = test system: Staphylococcus aureus SA100, ATCC 13709, MSSA, Smith strain; experiment: MIC assay, SA100; format: cell-based
# E. coli ATCC 25922 = experiment: Mouse systemic infection model, E. coli septicemia; details: mouse septicemia, E. coli ATCC 25922, treatment one hour post-challenge, survival after 48 hours
# [18] = test system: S. aureus strains collected from various geographical sources; experiment: MIC50 and MIC90 analysis (Example 22)
# Description: (§4) Frozen bacterial strains were thawed and subcultured onto Mueller Hinton Broth (MHB) or other appropriate media (Streptococcus requires blood and Haemophilus requires hemin and NAD). Following incubation overnight, the strains were subcultured onto Mueller Hinton Agar and again incubated overnight. […] Isolated colonies were selected to prepare a starting inoculum equivalent to a 0.5 McFarland standard. […] Antibiotics (stored frozen, thawed and used within 3 hours of thawing) and compounds were further diluted to the desired working concentrations.
# (§5) The assays were run as follows. Fifty μL of MHB was added to wells 2-12 of a 96-well plate. One hundred μL of appropriately diluted antibiotic or compound was added to well 1. Fifty μL of antibiotics or compound was removed from well 1 and added to well 2 and the contents of well 2 mixed by pipetting up and down five times. Fifty μL of the mixture in well 2 was removed and added to well 3 and mixed as above. Serial dilutions were continued in the same manner through well 12. Fifty μL was removed from well 12 so that all contained 50 μL. Fifty μL of the working inoculum was then added to all test wells. A growth control well was prepared by adding 50 μL of working inoculum and 50 μL of MHB to an empty well. The plates were then incubated at 37° C. overnight, removed from the incubator and each well was read on a plate reading mirror. The lowest concentration (MIC) of test compound that inhibited the growth of the bacteria was recorded.
# (§6) MIC, MIC50 and MIC90 values were determined according to CLSI methodology. S. pneumoniae and H. influenzae isolates were obtained from Eurofins-Medinet and are recent clinical isolates. S. aureus strains were collected from various geographical sources.
# [19] = test system: H. influenzae isolates (Eurofins-Medinet, recent clinical isolates); experiment: MIC50 and MIC90 analysis (Example 22)
# Description: as §4, §5, §6
# [20] = Table 8, read-out: MIC E. coli tetA
# [21] = ATCC49619, Table 8, read-out: MIC S. pneumoniae ATCC 49619
# [22] = ATCC25922, Table 8, read-out: MIC E. coli ATCC 25922
# [23] = Table 8, read-out: MIC E. faecalis tetM
# [24] = Table 8, read-out: MIC S. aureus ATCC 29213
smiles,measurement,setting,value
"C[C@H]1COc2c(N3CCN(C)CC3)c(F)cc3c(=O)c(C(=O)O)cn1c23 [Levofloxacine, levofloxacin, reference compound]",MIC,"[1]; read-out: MIC, TetK Induced",0.0156 µg/mL
same,MIC,"[1]; read-out: MIC, Uninduced",0.0156 µg/mL
same,"MIC ratio, TetK induced to uninduced",[1],1
same,MIC,"[2]; read-out: MIC, TetM induced",0.0156 µg/mL
same,MIC,"[2]; read-out: MIC, Uninduced",0.0156 µg/mL
same,Ratio (TetM induced / Uninduced),[2],1
CN(C)[C@@H]1C(O)=C(C(N)=O)C(=O)[C@@]2(O)C(O)=C3C(=O)c4c(O)c(NC(=O)CNC(C)(C)C)nc(F)c4C[C@H]3C[C@@H]12 [Compound 120],TnT IC50,[3],0.36 µg/mL
same,"IC50, in vitro transcription/translation system",[3],sub-μg/ml
CN(C)[C@@H]1C(O)=C(C(N)=O)C(=O)[C@@]2(O)C(O)=C3C(=O)c4c(O)c(N)nc(F)c4C[C@H]3C[C@@H]12 [Compound 125],TnT IC50,[3],0.93 µg/mL
same,"IC50, in vitro transcription/translation system",[3],sub-μg/ml
CN(C)[C@@H]1C(O)=C(C(N)=O)C(=O)[C@@]2(O)C(O)=C3C(=O)c4c(O)cnc(Cl)c4C[C@H]3C[C@@H]12 [Compound 123],MIC,[4],32 µg/mL
same,MIC,[5]; [20],> 32 µg/mL
same,MIC,[6],32 µg/mL
same,MIC,[7],32 µg/mL
same,MIC,[8]; [21],1 µg/mL
same,MIC,[9],32 µg/mL
same,MIC,[10]; [22],2 µg/mL
same,MIC,[11]; [23],> 32 µg/mL
same,MIC,[12]; [24],1 µg/mL
CN(C)[C@@H]1C(O)=C(C(N)=O)C(=O)[C@@]2(O)C(O)=C3C(=O)c4c(O)c(N)nc(Cl)c4C[C@H]3C[C@@H]12 [Compound 147],TnT IC50,[3],1.1 µg/mL
CCCc1nc(N(C)C)c2c(c1O)C(=O)C1=C(O)[C@]3(O)C(=O)C(C(N)=O)=C(O)[C@@H](N(C)C)[C@@H]3C[C@@H]1C2 [Compound 141],MIC Range,[13],2-4
same,MIC Range,[14]; in µg/mL,0.25-8
same,MIC Range,[15],1-8
same,MIC,"[1]; read-out: MIC, TetK Induced",32 µg/mL
same,MIC,"[1]; read-out: MIC, Uninduced",> 32 µg/mL
same,MIC,"[2]; read-out: MIC, TetM induced",32 µg/mL
same,MIC,"[2]; read-out: MIC, Uninduced",32 µg/mL
same,Ratio (TetM induced / Uninduced),[2],1
CN(C)CCCNc1nc(Cl)c2c(c1O)C(=O)C1=C(O)[C@]3(O)C(=O)C(C(N)=O)=C(O)[C@@H](N(C)C)[C@@H]3C[C@@H]1C2 [Compound 119],TnT IC50,[3],0.58 µg/mL
same,"IC50, in vitro transcription/translation system",[3],sub-μg/ml
"CO/N=C(\C(=O)N[C@@H]1C(=O)N2C(C(=O)O)=C(CSc3nc(=O)c(=O)[nH]n3C)CS[C@H]12)c1csc(N)n1 [Ceftriaxone, ceftriaxone, reference compound]",MIC,"[1]; read-out: MIC, TetK Induced",0.25 µg/mL
same,MIC,"[1]; read-out: MIC, Uninduced",0.125 µg/mL
same,"MIC ratio, TetK induced to uninduced",[1],2
same,Effect of expression of (tet)K on activity,[1],unaffected
same,MIC,"[2]; read-out: MIC, TetM induced",0.125 µg/mL
same,MIC,"[2]; read-out: MIC, Uninduced",0.0625 µg/mL
same,Ratio (TetM induced / Uninduced),[2],2
same,Effect of expression of (tet)M on activity,[2],unaffected
CCCNc1nc(F)c2c(c1O)C(=O)C1=C(O)[C@]3(O)C(=O)C(C(N)=O)=C(O)[C@@H](N(C)C)[C@@H]3C[C@@H]1C2 [Compound 114],TnT IC50,[3],2.8 µg/mL
CN(C)[C@@H]1C(O)=C(C(N)=O)C(=O)[C@@]2(O)C(O)=C3C(=O)c4c(O)cnc(F)c4C[C@H]3C[C@@H]12 [Compound 144],MIC,[4],4 µg/mL
same,MIC,[5]; [20],> 32 µg/mL
same,MIC,[6],8 µg/mL
same,MIC,[7],8 µg/mL
same,MIC,[8]; [21],0.016 µg/mL
same,MIC,[9],8 µg/mL
same,MIC,[10]; [22],0.25 µg/mL
same,MIC,[11]; [23],32 µg/mL
same,MIC,[12]; [24],0.031 µg/mL
"NCC[C@H](O)C(=O)N[C@@H]1C[C@H](N)[C@@H](O[C@H]2O[C@H](CN)[C@@H](O)[C@H](O)[C@H]2O)[C@H](O)[C@H]1O[C@H]1O[C@H](CO)[C@@H](O)[C@H](N)[C@H]1O [Amikacin, amikacin, reference compound]",MIC,"[1]; read-out: MIC, TetK Induced",8 µg/mL
same,MIC,"[1]; read-out: MIC, Uninduced",8 µg/mL
same,"MIC ratio, TetK induced to uninduced",[1],1
same,Effect of expression of (tet)K on activity,[1],unaffected
same,MIC,"[2]; read-out: MIC, TetM induced",4 µg/mL
same,MIC,"[2]; read-out: MIC, Uninduced",4 µg/mL
same,Ratio (TetM induced / Uninduced),[2],1
same,Effect of expression of (tet)M on activity,[2],unaffected
CCCc1nc(Cl)c2c(c1O)C(=O)C1=C(O)[C@]3(O)C(=O)C(C(N)=O)=C(O)[C@@H](N(C)C)[C@@H]3C[C@@H]1C2 [Compound 104],TnT IC50,[3],5.3 µg/mL
CN(C)[C@@H]1C(O)=C(C(N)=O)C(=O)[C@@]2(O)C(O)=C3C(=O)c4c(O)c(NC(=O)CNC(C)(C)C)nc(Cl)c4C[C@H]3C[C@@H]12 [Compound 132],TnT IC50,[3],0.78 µg/mL
same,"IC50, in vitro transcription/translation system",[3],sub-μg/ml
"CN(C)c1ccc(O)c2c1C[C@H]1C[C@H]3[C@H](N(C)C)C(O)=C(C(N)=O)C(=O)[C@@]3(O)C(O)=C1C2=O [minocycline, reference compound]",MIC,[5]; [20],8 µg/mL
same,MIC,[6],8 µg/mL
same,MIC,[7],2 µg/mL
same,MIC,[8]; [21],≤ 0.016 µg/mL
same,MIC,[9],0.03 µg/mL
same,MIC,[10]; [22],0.5 µg/mL
same,MIC,[11]; [23],16 µg/mL
same,MIC,[12]; [24],0.06 µg/mL
"CN(C)[C@@H]1C(O)=C(C(N)=O)C(=O)[C@@]2(O)C(O)=C3C(=O)c4c(O)cccc4[C@@](C)(O)[C@H]3C[C@@H]12 [Tetracycline, tetracycline, reference compound]",MIC,[4],8 µg/mL
same,MIC,[5]; [20],> 64 µg/mL
same,MIC,"[5]; Table 9, read-out: MIC E. coli EC155 (tet)A",> 32 µg/mL
same,MIC,[6],64 µg/mL
same,PD50,[16],0.35 mg/kg
same,MIC,"[17]; Table 12, read-out: MIC S. aureus ATCC 13709",0.5 µg/mL
same,PD50,E. coli ATCC 25922,17.0 mg/kg
same,MIC,[8]; [21],0.063 µg/mL
same,MIC,"[8]; ATCC49619, Table 9, read-out: MIC S. pneum ATCC 49619",0.25 µg/mL
same,MIC,"[1]; read-out: MIC, TetK Induced",> 32 µg/mL
same,MIC Range,[18]; S. aureus (n = 20),0.06 to 32 µg/mL
same,MIC50,[18]; Staphylococcus aureus,0.13 µg/mL
same,MIC90,[18]; Staphylococcus aureus,0.25 µg/mL
same,MIC Range,[19]; H. influenzae (n = 12),0.25 to 16 µg/mL
same,MIC50,[19]; Haemophilus influenzae,0.5 µg/mL
same,MIC,[11]; [23],64 µg/mL
same,MIC,"[11]; Table 9, read-out: MIC E. faecalis EF159 (tet)M",> 32 µg/mL
same,MIC,[12]; [24],0.25 µg/mL
same,MIC,"[12]; Table 9, read-out: MIC S. aureus ATCC 29213",0.5 µg/mL
same,MIC,"[2]; read-out: MIC, TetM induced",> 32 µg/mL
"CN(C)c1cc(NC(=O)CNC(C)(C)C)c(O)c2c1C[C@H]1C[C@H]3[C@H](N(C)C)C(O)=C(C(N)=O)C(=O)[C@@]3(O)C(O)=C1C2=O [tigecycline, reference compound]",PD50,[16],0.35 mg/kg
same,MIC,[17]; read-out: MIC S. aureus ATCC 13709,0.13 µg/mL
same,PD50,E. coli ATCC 25922,2.1 mg/kg
same,MIC Range,[13],0.063-0.25
same,MIC Range,[14],≦0.016
same,MIC Range,[15],<=0.016-0.13
same,MIC,"[10]; ATCC25922, read-out: MIC E. coli ATCC 25922",0.13 µg/mL
same,TnT IC50,[3],0.47 µg/mL
CN(C)[C@@H]1C(O)=C(C(N)=O)C(=O)[C@@]2(O)C(O)=C3C(=O)c4c(O)c(NCC(F)(F)F)nc(Cl)c4C[C@H]3C[C@@H]12 [Compound 124],MIC Range,[13],0.25-4
same,MIC Range,[14]; in µg/mL,<=0.016-8
same,MIC Range,[15],0.008-4
same,MIC,"[1]; read-out: MIC, TetK Induced",16 µg/mL
same,MIC,"[1]; read-out: MIC, Uninduced",8 µg/mL
same,"MIC ratio, TetK induced to uninduced",[1],2
same,MIC,"[2]; read-out: MIC, TetM induced",16 µg/mL
same,MIC,"[2]; read-out: MIC, Uninduced",4 µg/mL
same,Ratio (TetM induced / Uninduced),[2],4
same,TnT IC50,[3],>4.5 µg/mL
